Among the data in patent US5250561A, “Tetrahydroindazole, tetrahydrocyclopentapyrazole, and hexahydrocycloheptapyrazole compounds and their use as HMG-COA reductase inhibitors” (Ortho Pharmaceutical Corporation, priority 1992, dated 1993) are IC50 values, retold here.

The target in assay [1] is HMG-CoA reductase. Kind of assay: HMG-CoA Reductase Isolation And Assay (ammonium sulfate precipitated enzyme from rat liver). Type of assay: biochemical, male Wistar rats. The note with it: racemic mixture. The method, then:
Livers were harvested from male Wistar rats (250 g) following a five day feeding with powdered chow containing 2% cholestyramine. Ammonium sulfate precipitated HMG-CoA reductase was prepared from these livers according to the method of Heller, et. al. (Heller, R. A. Shrewsbury, M. A. Journal of Biological Chemistry, 251, 1976, 3815-3822). HMG-CoA reductase activity was measured using a modification of the procedure of Edwards, et. al. (Edwards, P. A., Lemongello, […]. Journal of Lipid Research, 20, 1979, 40-46). The effects of compounds on HMG-CoA reductase activity were determined by combining the compound with the enzyme and preincubating for 10 minutes prior to addition of the substrate […].

In assay [2] the test system is Hep-G2 cells. The assay is described as follows: Cell Culture Cholesterol Biosynthesis Assay. In kind it is cell-based. The note with it: Homo sapiens, racemic mixture. The method, then:
When the cells were 2/3 confluent, they were fed MEM containing Earles salts and delipidated serum protein (DLP) at 5 mg/mL and then incubated for a period of 24 h. DLP was prepared according to the procedure of Rothblat, et. al. ([…]., Howard, B. V. In Vitro (Rockville), 12, 1976, 554-557). The DLP medium was then removed and 3.3 mL of media containing the drug indicated was added. […] Fatty acids were extracted and digitonin precipitable sterols were recovered according the procedure of Kanduch and Saucier (Kandutch, A. A., Saucier, S. E. Journal of Biological Chemistry, 244, 1969, 2299-2305). To adjust for cell number per flask, the cholesterol synthesized was normalized to the fatty acids synthesized and results were expressed as percent inhibition vs. control.

The structures appear in SMILES notation. Where a name gives a salt, the structure may show the parent alone.

On to `CCOC(=O)C[C@H](O)C[C@H](O)/C=C/c1c2c(nn1-c1ccc(F)cc1)C(Cc1ccccc1)CCC2` (mixture of isomers) [Compound 47, Ethyl (E)-(3RS,5SR)-7-[7-benzyl-2-(4-fluorophenyl)-4,5,6,7-tetrahydro-2H-indazol-3-yl]-3,5-dihydroxy-6-heptenoate], for which the IC50 came to 120 nM in assay [1] (Table IV) and 290 nM in assay [2] (HepG2, Table IV).
With `O=C1C[C@H](O)C[C@@H](/C=C/c2c3c(nn2-c2ccc(F)cc2)C(Cc2ccccc2)CCC3)O1` (mixture of isomers) [Compound 79, (E)-(4RS,6SR)-6-[2-[7-Benzyl-2-(4-fluorophenyl)-4,5,6,7-tetrahydro-2H-indazol-3-yl]ethenyl]-4-hydroxy-3,4,5,6-tetrahydro-2H-pyran-2-one], the half-maximal inhibitory concentration (IC50) was found to be 750 nM in assay [1] (Table V) and 260 nM in assay [2] (HepG2, Table V).
Regarding `O=C(O)C[C@H](O)C[C@H](O)/C=C/c1nn(-c2ccc(F)cc2)c2c1CCC2` (relative stereo) [Compound 2], the IC50 in assay [1] (Table II) stood at 100000 nM.
For `O=C(O)C[C@H](O)C[C@H](O)/C=C/c1nn(Cc2ccc(F)cc2)c2c1CCCCC2` (relative stereo) [Compound 9], the IC50 in assay [1] (Table II) is 100000 nM.
For `O=C(O)C[C@H](O)C[C@H](O)/C=C/c1c2c(nn1-c1ccc(F)cc1)CCC2` (relative stereo) [Compound 10], the IC50 in assay [1] (Table III) came out at 5100 nM.
In the case of `O=C(O)C[C@H](O)C[C@H](O)/C=C/c1c2c(nn1-c1ccc(F)cc1)-c1ccccc1CC2` (relative stereo) [Compound 22], in assay [1] (Table III), the IC50 was 13000 nM.
In the case of `O=C(O)C[C@H](O)C[C@H](O)/C=C/c1c2c(nn1-c1ccc(F)cc1)CCCC2` (relative stereo) [Compound 25], in assay [1] (Table III), the IC50 worked out at 2500 nM.
Consider `O=C(O)C[C@H](O)C[C@H](O)/C=C/c1c2c(nn1-c1ccc(Cl)cc1)CCCC2` (relative stereo) [Compound 26], for which the half-inhibitory concentration (IC50) in assay [1] (Table III) turned out to be 8800 nM.
For `C/C(=C\c1c2c(nn1-c1ccc(F)cc1)CCCC2)[C@@H](O)C[C@@H](O)CC(=O)O` (relative stereo) [Compound 27], the IC50 in assay [1] (Table III) worked out at 2700 nM.
On the same count and under the same terms, then `O=C(O)C[C@H](O)C[C@H](O)/C=C/c1c2c(nn1-c1ccc(F)cc1)-c1ccccc1CCC2` (relative stereo) [Compound 36], with 2100 nM.
On the same count and under the same terms, then `O=C(O)C[C@H](O)C[C@H](O)/C=C/c1c2c(nn1-c1ccc(F)cc1)CCCCC2` (relative stereo) [Compound 37], with 3800 nM; and `O=C(O)C[C@H](O)C[C@H](O)/C=C/c1c2c(nn1Cc1ccc(F)cc1)CCCCC2` (relative stereo) [Compound 38], with 23000 nM.
As for `O=C1C[C@H](O)C[C@@H](/C=C/c2c3c(nn2-c2ccc(F)cc2)CCCC3)O1` (relative stereo) [Compound 83], the IC50 in assay [1] (Table V) was 9000 nM.
On to `O=C(O)C[C@H](O)C[C@H](O)/C=C/c1c2c(nn1-c1ccc(F)cc1)C(Cc1ccc(-c3ccccc3)cc1)CCC2` (stereo partly drawn) [Compound 1, (E)-(3RS,5SR)-7-[7-[(1,1'-Biphenyl)-4-ylmethyl]-2-(4-fluorophenyl)-4,5,6,7-tetrahydro-2H-indazol-3-yl]-3,5-dihydroxy-6-heptenoic acid.Sodium salt.Dihydrate], for which the half-inhibitory concentration (IC50) in assay [1] (Table III) was 2.7 nM; in assay [2] (HepG2, Table III), 240 nM.
As to `O=C(O)C[C@H](O)C[C@H](O)/C=C/c1nn(-c2ccc(F)cc2)c2c1CCCC2Cc1ccc(F)cc1` (stereo partly shown) [Compound 3], the concentration for half-maximal inhibition (IC50) turned out to be 31000 nM in assay [1] (Table II) and 27000 nM in assay [2] (HepG2, Table II).
For `O=C(O)C[C@H](O)C[C@H](O)/C=C/c1nn(-c2ccc(F)cc2)c2c1CCCC2C1CCCCC1` (stereo partly shown) [Compound 4], the IC50 in assay [1] (Table II) is 47000 nM.
For `CCC1CCCc2c(/C=C/[C@@H](O)C[C@@H](O)CC(=O)O)nn(-c3ccc(F)cc3)c21` (stereo partly shown) [Compound 5], the 50% inhibitory concentration (IC50) in assay [1] (Table II) amounted to 35000 nM.
Take `CC1CCCc2c(/C=C/[C@@H](O)C[C@@H](O)CC(=O)O)nn(-c3ccc(F)cc3)c21` (stereo partly shown) [Compound 6]: the IC50 in assay [1] (Table II) was 100000 nM.
On to `O=C(O)C[C@H](O)C[C@H](O)/C=C/c1nn(-c2ccc(F)cc2)c2c1CCCC2CCc1ccccc1` (stereo partly shown) [Compound 7], for which the IC50 in assay [2] (HepG2, Table II) is over 10000 nM.
Take `O=C(O)C[C@H](O)C[C@H](O)/C=C/c1nn(-c2ccc(F)cc2)c2c1CCCC2CC=Cc1ccccc1` (stereo partly shown) [Compound 8]: the IC50 in assay [1] (Table II) was 3000 nM.
For the molecule `O=C(O)C[C@H](O)C[C@H](O)/C=C/c1c2c(nn1-c1ccc(F)cc1)C(Cc1cccc3ccccc13)CCC2` (stereo partly shown) [Compound 11], the IC50 in assay [1] (Table III) was 26 nM; in assay [2] (HepG2, Table III), 370 nM.
The matching figures for `O=C(O)C[C@H](O)C[C@H](O)/C=C/c1c2c(nn1-c1ccc(F)cc1)C(Cc1ccccc1Cl)CCC2` (stereo partly shown) [Compound 12]: 100 nM and 1300 nM.
With `O=C(O)C[C@H](O)C[C@H](O)/C=C/c1c2c(nn1-c1ccc(F)cc1)C(Cc1ccc3ccccc3c1)CCC2` (stereo partly shown) [Compound 13], the IC50 in assay [1] (Table III) was found to be 5.6 nM; in assay [2] (HepG2, Table III) it was 330 nM.
Taken in the same sequence, the figures for `COc1cccc(CC2CCCc3c2nn(-c2ccc(F)cc2)c3/C=C/[C@@H](O)C[C@@H](O)CC(=O)O)c1` (stereo partly shown) [Compound 14] were 48 nM and 1090 nM.
On to `COc1ccc(CC2CCCc3c2nn(-c2ccc(F)cc2)c3/C=C/[C@@H](O)C[C@@H](O)CC(=O)O)cc1OC` (stereo partly shown) [Compound 15], for which the half-maximal inhibitory concentration (IC50) in assay [1] (Table III) stood at 168 nM; in assay [2] (HepG2, Table III), 3900 nM.
Turning to `O=C(O)C[C@H](O)C[C@H](O)/C=C/c1c2c(nn1-c1ccc(F)cc1)C(Cc1ccc(Cl)cc1)CCC2` (stereo partly shown) [Compound 16], the IC50 was found to be 58 nM in assay [1] (Table III) and 360 nM in assay [2] (HepG2, Table III).
As to `O=C(O)C[C@H](O)C[C@H](O)/C=C/c1c2c(nn1-c1ccc(F)cc1)C(Cc1ccc(F)cc1)CCC2` (stereo partly shown) [Compound 17], the concentration for half-maximal inhibition (IC50) in assay [1] (Table III) was found to be 150 nM; in assay [2] (HepG2, Table III) it was 700 nM.
The matching figures for `CC(C)c1ccc(CC2CCCc3c2nn(-c2ccc(F)cc2)c3/C=C/[C@@H](O)C[C@@H](O)CC(=O)O)cc1` (stereo partly shown) [Compound 18]: 14 nM and 260 nM.
`Cc1ccc(CC2CCCc3c2nn(-c2ccc(F)cc2)c3/C=C/[C@@H](O)C[C@@H](O)CC(=O)O)cc1` (stereo partly shown) [Compound 19]: the half-inhibitory concentration (IC50) turned out to be 19 nM in assay [1] (Table III) and 130 nM in assay [2] (HepG2, Table III).
The matching figures for `COc1ccc(CC2CCCc3c2nn(-c2ccc(F)cc2)c3/C=C/[C@@H](O)C[C@@H](O)CC(=O)O)cc1` (stereo partly shown) [Compound 20]: 14 nM and 460 nM.
As to `CC(C)(C)c1ccc(CC2CCCc3c2nn(-c2ccc(F)cc2)c3/C=C/[C@@H](O)C[C@@H](O)CC(=O)O)cc1` (stereo partly shown) [Compound 21], the IC50 in assay [1] (Table III) turned out to be 16 nM; in assay [2] (HepG2, Table III) it was 135 nM.
On to `O=C(O)C[C@H](O)C[C@H](O)/C=C/c1c2c(nn1-c1ccc(F)cc1)C(C1CCCCC1)CCC2` (stereo partly shown) [Compound 23], for which the IC50 in assay [1] (Table III) turned out to be 7700 nM.
In the case of `CCC1CCCc2c1nn(-c1ccc(F)cc1)c2/C=C/[C@@H](O)C[C@@H](O)CC(=O)O` (stereo partly shown) [Compound 24], the half-inhibitory concentration (IC50) in assay [1] (Table III) is 1000 nM.
Same read-out and setting: to `CC1CCCc2c1nn(-c1ccc(F)cc1)c2/C=C/[C@@H](O)C[C@@H](O)CC(=O)O` (stereo partly shown) [Compound 28] belongs 1100 nM; to `CCCC1CCCc2c1nn(-c1ccc(F)cc1)c2/C=C/[C@@H](O)C[C@@H](O)CC(=O)O` (stereo partly shown) [Compound 29], 1300 nM; to `O=C(O)C[C@H](O)C[C@H](O)/C=C/c1c2c(nn1-c1ccc(F)cc1)C(c1ccccc1)CCC2` (stereo partly shown) [Compound 30], 3100 nM.
For `O=C(O)C[C@H](O)C[C@H](O)/C=C/c1c2c(nn1-c1ccc(F)cc1)C(Cc1ccccc1)CCC2` (stereo partly shown) [Compound 31], the IC50 worked out at 85 nM in assay [1] (Table III) and 220 nM in assay [2] (HepG2, Table III).
Regarding `O=C(O)C[C@H](O)C[C@H](O)/C=C/c1c2c(nn1-c1ccc(F)cc1)C(CCc1ccccc1)CCC2` (stereo partly shown) [Compound 32], the IC50 in assay [1] (Table III) was found to be 334 nM; in assay [2] (HepG2, Table III), 1750 nM.
Taken in the same sequence, the figures for `O=C(O)C[C@H](O)C[C@H](O)/C=C/c1c2c(nn1-c1ccc(F)cc1)C(CCCc1ccccc1)CCC2` (stereo partly shown) [Compound 33] were 160 nM and 1100 nM.
In the case of `CCC(C)C1CCCc2c1nn(-c1ccc(F)cc1)c2/C=C/[C@@H](O)C[C@@H](O)CC(=O)O` (stereo partly shown) [Compound 35], in assay [1] (Table III), the IC50 came out at 1000 nM.
As for `COC(=O)C[C@H](O)C[C@H](O)/C=C/c1c2c(nn1-c1ccc(F)cc1)C(Cc1ccc3ccccc3c1)CCC2` (stereo partly shown) [Compound 42], the IC50 in assay [2] (HepG2, Table I) came to 365 nM.
As to `COC(=O)C[C@H](O)C[C@H](O)/C=C/c1c2c(nn1-c1ccc(F)cc1)C(Cc1ccc(C(C)C)cc1)CCC2` (stereo partly shown) [Compound 43], the IC50 in assay [2] (HepG2, Table I) amounted to 120 nM.
Turning to `CCOC(=O)C[C@H](O)C[C@H](O)/C=C/c1c2c(nn1-c1ccc(F)cc1)C(Cc1ccc(Cl)cc1)CCC2` (stereo partly shown) [Compound 60], in assay [2] (HepG2, Table IV), the IC50 was determined as 460 nM.
On to `CCOC(=O)C[C@H](O)C[C@H](O)/C=C/c1c2c(nn1-c1ccc(F)cc1)C(Cc1ccc(C(C)(C)C)cc1)CCC2` (stereo partly shown) [Compound 64], for which the concentration for half-maximal inhibition (IC50) in assay [1] (Table IV) was 30 nM.
Regarding `CCC(CC)CC1CCCc2c1nn(-c1ccc(F)cc1)c2/C=C/[C@@H]1C[C@@H](O)CC(=O)O1` (stereo partly shown) [Compound 80], in assay [1] (Table V), the half-maximal inhibitory concentration (IC50) is 29000 nM.
For `O=C1C[C@H](O)C[C@@H](/C=C/c2c3c(nn2-c2ccc(F)cc2)C(Cc2ccc4ccccc4c2)CCC3)O1` (stereo partly shown) [Compound 81], the IC50 in assay [2] (HepG2, Table V) is 390 nM.

A word on the IC50: it is the concentration at which inhibition is half-maximal.
